What was measured:
Type in all cases: in vivo
dog = assay: Anti-emetic activity in dogs, modified anti-apomorphine method; conditions: fumarate salts; for ED50: Canis lupus familiaris, sc, expressed as free base, read-out: ED50 (95% Confidence Limits), anti-apomorphine
Method: The anti-emetic properties of the fumarate salts were established in dogs using a modification of the anti-apomorphine methods of Chen and Ensor, J. Pharmac. Exp. Ther. 98, 245-250 (1950) and of Leonard et al., J. Pharmac. Exp. Ther. 154, 339-345 (1966) and the ED50 was calculated by the method of Goldstein (Biostatistics, An Introductory Text, pg. 156-161, The MacMillan Co., N. Y., 1964).

[1] = Cataleptic effects in rat, procedure based on Tedeschi et al.; conditions: in vivo; rat, IP; fumarate salts, expressed as free base; read-out: ED50, cataleptic effect
Description: (§1) The procedure used for determining cataleptic effects of the fumarate salts was based on that of Tedeschi et al., Arch. Int. Pharmacodyn.

rat = assay: as above; conditions: for cataleptic effect (NSE = no significant cataleptic effect in doses up to indicated amount): rat, fumarate salts, expressed as free base
Description: as §1

Which ED50 (dog) does the source give for `CN(C(=O)c1ccc(N)cc1)C1CCN(C2CCCCC2)C1` (single isomer, unassigned; (-)) [(-)-isomer, (-)-4-amino-N-(1-cyclohexyl-3-pyrrolidinyl)-N-methylbenzamide] here?
Its ED50 is 0.09 mg/kg.

What about the ED50 [1] of the same molecule?
Its ED50 is > 100 mg/kg.

Which results are given for `CN(C(=O)c1ccc(N)cc1)C1CCN(C2CCCCC2)C1` (single isomer, unassigned; (+)) [(+)-isomer, (+)-4-amino-N-(1-cyclohexyl-3-pyrrolidinyl)-N-methylbenzamide]?
anti-apomorphine activity (words in the ED50 column) (dog; s.c.): no significant; cataleptic effect (NSE = no significant cataleptic effect in doses up to indicated amount) (rat; IP): NSE to 100; cataleptic effect (NSE = no significant cataleptic effect in doses up to indicated amount) (rat; PO): NSE to 200

For `CN(C(=O)c1ccc(N)cc1)C1CCN(C2CCCCC2)C1` (racemic) [± racemate, 4-amino-N-(1-cyclohexyl-3-pyrrolidinyl)-N-methylbenzamide], which ED50 (dog) is on record?
The ED50 was 0.25 mg/kg.

What about the cataleptic properties (rat; general statement) of the same molecule?
Its cataleptic properties is “notable absence of cataleptic properties”.

What about the “cataleptic effect (NSE = no significant cataleptic effect in doses up to indicated amount)” value (rat; IP) of the same molecule?
The value was “NSE to 100”.

What about the “cataleptic effect (NSE = no significant cataleptic effect in doses up to indicated amount)” value (rat; PO) of the same molecule?
The value was “NSE to 200”.

From patent US4282243A, “Optical isomers of 4-amino-N-(1-cyclohexyl-3-pyrrolidinyl)-N-methylbenzamide” (A. H. Robins Company, Inc., priority 1980, dated 1981)
